Data from ChEMBL document CHEMBL1135667, “Synthesis of halogen-substituted pyridyl and pyrimidyl derivatives of [3,2-c]pyrazolo corticosteroids: strategies for the development of glucocorticoid receptor mediated imaging agents” (J Med Chem, 2002).

These compounds were tested against T1, Glucocorticoid receptor (Homo sapiens) (UniProt P04150). Conditions: HeLa.
T1 sequence (whole entry): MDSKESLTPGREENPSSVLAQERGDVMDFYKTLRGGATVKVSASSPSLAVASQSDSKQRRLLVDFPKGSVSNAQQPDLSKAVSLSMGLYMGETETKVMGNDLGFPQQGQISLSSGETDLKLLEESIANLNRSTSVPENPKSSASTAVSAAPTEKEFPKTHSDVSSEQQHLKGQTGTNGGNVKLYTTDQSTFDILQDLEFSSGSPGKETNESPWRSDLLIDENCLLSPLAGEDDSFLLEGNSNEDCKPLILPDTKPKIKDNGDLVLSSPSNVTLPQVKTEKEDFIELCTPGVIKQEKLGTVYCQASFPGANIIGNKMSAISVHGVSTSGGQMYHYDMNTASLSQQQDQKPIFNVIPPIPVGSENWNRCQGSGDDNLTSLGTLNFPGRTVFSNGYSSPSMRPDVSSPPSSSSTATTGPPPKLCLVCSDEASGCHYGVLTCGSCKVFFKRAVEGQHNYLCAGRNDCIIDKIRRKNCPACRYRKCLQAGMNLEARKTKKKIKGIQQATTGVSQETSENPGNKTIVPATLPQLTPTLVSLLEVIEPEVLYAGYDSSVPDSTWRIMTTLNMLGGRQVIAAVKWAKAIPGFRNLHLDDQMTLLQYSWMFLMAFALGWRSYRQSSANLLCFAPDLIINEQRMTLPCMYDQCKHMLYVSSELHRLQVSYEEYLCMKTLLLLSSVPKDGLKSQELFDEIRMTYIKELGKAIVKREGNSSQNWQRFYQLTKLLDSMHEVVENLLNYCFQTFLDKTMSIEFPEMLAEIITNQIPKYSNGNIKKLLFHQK
Description: Relative transcriptional activation in HeLa cells expressing glucocorticoid receptor

Row | Structure (SMILES) | RSA
1 | C[C@@H]1CC2C3CCC4=Cc5c(cnn5-c5ccccn5)CC4(C)C3C(O)CC2(C)[C@@]1(O)C(=O)CO (some centres not stated) | 30
2 | C[C@@H]1CC2C3CCC4=Cc5c(cnn5-c5cnccc5Cl)CC4(C)C3C(O)CC2(C)[C@@]1(O)C(=O)CO (some centres not stated) | 33
3 | C[C@@H]1CC2C3CCC4=Cc5c(cnn5-c5cccnc5Cl)CC4(C)C3C(O)CC2(C)[C@@]1(O)C(=O)CO (some centres not stated) | 97
4 | C[C@@H]1CC2C3CCC4=Cc5c(cnn5-c5cccnc5)CC4(C)C3C(O)CC2(C)[C@@]1(O)C(=O)CO (some centres not stated) | 255
5 | C[C@@H]1CC2C3CCC4=Cc5c(cnn5-c5ccc(Cl)nc5)CC4(C)C3C(O)CC2(C)[C@@]1(O)C(=O)CO (some centres not stated) | 24

More lines, now with the values ahead:

Row | RSA | Structure (SMILES)
6 | 483 | C[C@@H]1CC2C3CCC4=Cc5c(cnn5-c5ccc(F)cc5)CC4(C)C3C(O)CC2(C)C1(O)C(=O)CO (some centres not stated)
7 | 0 | C[C@@H]1CC2C3CCC4=Cc5c(cnn5-c5ncccn5)CC4(C)C3C(O)CC2(C)[C@@]1(O)C(=O)CO (some centres not stated)
8 | 100 | C[C@@H]1C[C@H]2[C@@H]3CCC4=CC(=O)C=C[C@]4(C)[C@@]3(F)[C@@H](O)C[C@]2(C)[C@@]1(O)C(=O)CO
9 | 436 | C[C@@H]1CC2C3CCC4=Cc5c(cnn5-c5ccc(F)nc5)CC4(C)C3C(O)CC2(C)[C@@]1(O)C(=O)CO (some centres not stated)
10 | 121 | C[C@@H]1CC2C3CCC4=Cc5c(cnn5-c5cccnc5F)CC4(C)C3C(O)CC2(C)[C@@]1(O)C(=O)CO (some centres not stated)
11 | 0 | C[C@@H]1CC2C3CCC4=Cc5c(cnn5-c5ccncn5)CC4(C)C3C(O)CC2(C)[C@@]1(O)C(=O)CO (some centres not stated)
12 | 135 | C[C@@H]1CC2C3CCC4=Cc5c(cnn5-c5ccncc5)CC4(C)C3C(O)CC2(C)[C@@]1(O)C(=O)CO (some centres not stated)
